Laboratory results reported in patent publication US10913732B2, “Furoxans as therapies for neurodegenerative disorders” (The University of Toledo, priority 2016, dated 2021).
“Also recorded” adds a separate entry of the source.

Assays:
[1] = tested on: PC12 cells; test: In vitro neuroprotection against oxygen glucose deprivation (OGD), MTT viability readout; format: cell-based; settings: OGD 90 min, reoxygenation, furoxan 1, 10 or 25 μM, 24 hr
Protocol: (§1) FIGS. 3A-3C: Neuroprotection (FIG. 3A), MTT treatment was used to assess cell viability (FIG. 3B), and pCREB modulation (FIG. 3C) of furoxan compounds. Neuroprotection assay workflow: expose PC12 cells to oxygen glucose deprivation (OGD) for 90 min→reoxygenate and add furoxan (1, 10, or 25 μM)→incubate for 24 hr→MTT readout of viability. Data represented as mean and s.e.m. (n=3). *=p<0.05, **=p<0.01, ***=p<0.001 compared to vehicle control using one way ANOVA analysis with Dunnett's post-hoc test. Red dashed line indicates threshold of vehicle effects. For pCREB modulation, 31b (25 μM) was examined (PC-12 cells, 48 hr incubation) in the following: without insult, with OGD, L-NAME.
It has been shown that furoxans are protective against oxygen glucose deprivation (OGD), a commonly used cellular model of ischemic stroke. PC12 cells were submitted to OGD for 90 minutes followed by reoxygenation and treatment with varying concentrations of selected embodiments of compounds of Formula I (indicated in FIG. 3A). After 24 hr, MTT treatment was used to assess cell viability (FIG. 3B). […] It has been shown previously that 4-N-oxides release NO at a much slower rate than corresponding 2-N-oxides.

[2] = tested on: pCREB; test: pCREB modulation in PC-12 cells (without insult, with OGD, L-NAME); format: cell-based; settings: 31b 25 μM, 48 hr incubation
Protocol: as §1

[3] = tested on: Male C57BL/6 mice; test: Step-through passive avoidance (STPA), scopolamine-induced amnesia; format: in vivo
Protocol: FIGS. 4A-4B: STPA experimental timeline (FIG. 4A), and results of Male C57BL/6 mice administered either vehicle or 31b via i.p. injection at 60 min or 120 min prior to training in STPA (FIG. 4B). […] Memory retention was measured as latency to enter the dark compartment 24 h after training. Data represented as mean and s.e.m.
The STPA apparatus consisted of an acrylic box with an illuminated compartment connected to a darkened compartment by a small guillotine door. Mice were placed in the illuminated side and were trained against their natural tendency to translocate to the dark side using an aversive stimulus (shock via electrified floor grading). Memory consolidation is measured as the latency times to enter the dark compartment 24 hr after training.
All procedures were performed under the approved IACUC protocol #108451. Male C57BL/6 mice (Envigo), N=9 per group, were habituated at the animal facility for at least 14 days. Ear tags were applied and animals weighed. 2 hr prior to the drug adminstration the mice were individually acclimated to the illuminated compartment to assess tendency to enter the dark chamber (measured in seconds). In this phase no shock was be delivered. […] The mice were then administered either vehicle (95 [0.9% NaCl]:5 [DMSO]) or 31b (0.1, 1, 10, or 20 mg/kg) via i.p. injection (50 μL) at 1 h or 2 h prior to training. […] Mice were individually placed into the light compartment and upon translocation to the dark compartment the guiltine door closed and the mice were trained by delivering a mild adversive stimulus (0.5 mA) via the electrified floor grading of the dark chamber. Each mouse was held in the dark chamber for 30 seconds, then returned to their cage for 120 seconds before the second training session. […] Memory retention was measured 24 hours after training by placing the same mouse in the light chamber and measuring latency to enter the dark chamber (no aversive stimulus is delivered during the retention test). Data was analyzed by one way ANOVA analysis with Dunnett's post-hoc test.

[4] = tested on: Mice; test: Permanent middle carotid artery occlusion (pMCAO) model of stroke; format: in vivo
Protocol: FIGS. 9A-9E: Evaluation of the furoxan 31b. […] Latency to fall was normalized to 4 h post-infarct mean for each group and is represented as mean and s.e.m. (n=12). Analyzed using one way ANOVA analysis with Tukey's post-hoc test. […] Each of the seven tests included in the 28-point NDS was graded from 0-4, with higher scores indicating severe deficits (n=12). Compared using unpaired t-test. […] Compared using unpaired t-test. For all data, *=p<0.05, **=p<0.01, ***=p<0.001.
31b (20 mg/kg, i.p.) was administered once daily for 6 days beginning 12 hr after permanent MCAO (pMCAO, FIG. 9A). pMCAO was chosen rather than 2-VO because pMCAO is much simpler and more reliable (pMCAO-no loss of animals vs 2-VO˜30% lethality 7 days post-op). Ultimately, this model allowed for the provision of evidence of neuroprotective efficacy and effect on BDNF.
Locomotor activity was evaluated by means of a rotarod task by a person blinded to the treatment groups. Mice were placed on a horizontal rod (Columbus Instruments, OH) that was made to rotate at 1 rpm with an acceleration rate of 1 rpm every 10 s until the animal fell from the rod. Each animal was tested three times per trial. All the animals were trained on the rotarod assembly prior to surgery. The duration for which each animal was able to stay on the accelerating rod was recorded as the latency to fall and registered manually. Locomotor activity was monitored 4 h before, 24 h, postsurgery and 7 days after p-MCAO surgery Grip strength was evaluated by holding the mice by tails and placing their forelimbs on a specially designed pull bar assemblies (Grip strength meter, Columbus Instruments, OH). […] Each animal was tested three times per trial at 4 h before, 2 and 7 days after p-MCAO surgery. NDS were evaluated by an optimized 28-point score pattern. A person blinded to the treatment evaluated NDS 7 days after p-MCAO; the evaluation included both sensory and motor deficits, such as body symmetry, gait, climbing, circling behavior, front limb symmetry, compulsory circling, and whisker response. Each of the seven tests included in the 28-point NDS was graded from 0 to 4, with higher scores indicating severe deficits. Animals from all the groups were euthanized 7 days after p-MCAO. Brains were dissected out and sliced into five 2-mm-thick coronal sections before incubating in 1% triphenyltetrazolium chloride (TTC) (Sigma Co., MI). The infarct area was estimated from five slices of each brain, measuring rostral and caudal sides of each individual slice in conjunction with the thickness and expressed as a percentage of the volume of the contralateral hemisphere. A person blinded to the treatment groups measured the infarct volume with the help of ImageJ software provided by NIH.

[5] = 20 mg/kg i.p. once daily for 6 days beginning 12 hr after pMCAO, day 7

Structure (SMILES): CC1CCN(Cc2no[n+]([O-])c2-c2ccc(F)cc2)CC1 [31b]
- Neuroprotection against OGD (cell viability by MTT) [1]: concentration dependent protection; also recorded: outperform the corresponding 2-N-oxides
- Effects of NOS inhibition on pCREB [2]: reverses the effects of NOS inhibition on pCREB
- Latency to enter the dark compartment ([3]; 20 mg/kg i.p. 2 hr prior to training, scopolamine 1 mg/kg i.p. 30 min prior to training, 24 hr after training): 237 s
- Reversal of scopolamine induced amnesia / memory impairment in STPA ([3]; mice, i.p., scopolamine 1 mg/kg): reverses scopolamine induced memory impairment; also recorded: capable of reversing scopolamine induced amnesia
- Infarct volume reduction ([4]; 20 mg/kg i.p. once daily for 6 days after pMCAO, TTC staining, p=0.11): ~30%
- BDNF levels relative to control animals ([4]; 20 mg/kg i.p. once daily for 6 days after pMCAO, WB, p=0.07): double the levels of control animals
- Behavioral functional recovery, neurologic deficit scoring (NDS) [4, 5]: reverses neurologic deficit; also recorded: significant improvement
- Behavioral functional recovery, rotarod [4, 5]: improves rotarod performance; also recorded: significant improvement
